The target in one experiment is T1, Human secretory PLA2 (Homo sapiens, UniProt P14555).
T1 sequence (P14555 21-144): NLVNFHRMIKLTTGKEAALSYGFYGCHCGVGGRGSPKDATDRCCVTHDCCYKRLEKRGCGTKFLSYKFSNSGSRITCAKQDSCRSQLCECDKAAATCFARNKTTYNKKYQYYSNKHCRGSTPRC
Kind of experiment: Secretory PLA2 inhibitory activity (diheptanoyl thio PC substrate, absorbance at 405 nm). The experiment is classed as biochemical. The following applies: diheptanoyl thio PC 1 mM, Triton X100 0.3 mM, pH 7.3, CaCl2 10 mM, 30 minutes, read-out: s-PLA2 Inhibition IC50. Here is the method: Secretory PLA2 activity was assayed according to the method described in Penynolds L. J., Hughes L. L., Dennis E. A. et al. Anal. Biochem. 201,190-197 (1992).
Diheptanoyl thiophosphatidylcholine which was prepared according to the procedure described in the literature was used as a substrate. Human secretory PLA2 was used as an enzyme. The diheptanoyl thio PC (1 mM) was reacted with the human secretory PLA2 in the presence of Triton X100 (0.3 mM) and 5,5'-dithiobis-(2-nitrobenzoic acid) (125 μM) in Tris buffer (25 mM, pH 7.3), CaCl2 (10 mM), KCI (100 mM), bovine serum albumin (1.0 mg/ml), and then the change in absorbance at 405 nm at the time of 30 minutes after the reaction was assayed.
Inhibitory activity (%) was estimated by the formula: [(the change in absorbance with the inhibitor and PLA2 ·the change in absorbance with the inhibitor and without PLA2)/(the change in absorbance without the inhibitor and with PLA2 ·the change in absorbance without the inhibitor and PLA2)]×100.
IC50 value (μM) was calculated from graph showing inhibitory values on the vertical axis and log of concentrations of the inhibitor on the horizontal axis.

The target of experiment [1] is T2, intracellular PLA2 (cytosolic PLA2, cPLA2) (Homo sapiens, UniProt P47712).
T2 sequence (P47712 1-749): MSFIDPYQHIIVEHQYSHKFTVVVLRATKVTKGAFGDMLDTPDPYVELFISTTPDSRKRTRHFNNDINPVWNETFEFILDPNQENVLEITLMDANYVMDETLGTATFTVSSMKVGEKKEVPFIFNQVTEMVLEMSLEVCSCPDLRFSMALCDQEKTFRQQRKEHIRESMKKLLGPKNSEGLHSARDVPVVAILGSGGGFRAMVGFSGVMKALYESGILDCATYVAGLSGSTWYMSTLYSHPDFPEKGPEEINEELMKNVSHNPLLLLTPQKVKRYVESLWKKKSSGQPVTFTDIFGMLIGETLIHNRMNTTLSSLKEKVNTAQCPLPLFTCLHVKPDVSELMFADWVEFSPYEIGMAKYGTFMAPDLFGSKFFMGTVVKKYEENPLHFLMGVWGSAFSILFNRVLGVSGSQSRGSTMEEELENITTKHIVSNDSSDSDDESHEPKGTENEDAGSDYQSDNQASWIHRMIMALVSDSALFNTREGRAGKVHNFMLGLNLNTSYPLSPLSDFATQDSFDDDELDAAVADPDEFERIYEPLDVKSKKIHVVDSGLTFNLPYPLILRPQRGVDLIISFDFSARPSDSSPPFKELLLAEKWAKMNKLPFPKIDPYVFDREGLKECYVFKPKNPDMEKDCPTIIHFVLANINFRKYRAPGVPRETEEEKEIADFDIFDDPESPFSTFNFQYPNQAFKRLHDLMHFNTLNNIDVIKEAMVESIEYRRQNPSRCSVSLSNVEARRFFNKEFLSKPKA
Kind of experiment: Intracellular PLA2 (cPLA2) inhibitory activity (14C-arachidonyl phosphatidylcholine substrate). It is filed as biochemical. The following applies: 2 μM radiolabelled phosphatidylcholine, 1 μM dioleoylglycerol, 1 mM CaCl2, pH 7.4; read-out: c-PLA2 Inhibition IC50. Here is the method:
cPLA2 activity was assayed according to the method described in R. M. Kramer, E. F. Roberts, J. Manetta and J. E. Putnam, J. Biol. Chem., 268 (8), 5268-5272 (1991). Briefly, intracellular PLA2 activity was assayed using supersonic treated […] which contain 1-palmitoyl-2-[^14 C]arachidonyl-sn-glycero-3-phosphocholine and sn-1, 2-dioleoylglycerol at a molar ratio of 2:1. This test mixture contained 1 mM CaCl2, 2 mM dithiothreitol, 150 mM NaCl, 50 mM Hepes, pH 7.4 and 0.1 mg/ml BSA. A substrate is a 2 μM radioisotope labelled phosphatidylcholine ribosome containing 1 μM dioleoylglycerol. IC50 value is calculating in the same manner as in calculating it for secretory PLA2 inhibitory activity.

Counter-ions that a name gives are not always drawn.

As to `COc1c(C(C)(C)C)cc(SCCCCCCOc2c(C)c(C)c(C(=O)Oc3c(C)c(C)c(C(=O)O)c(OC)c3C)c(OC)c2C)cc1C(C)(C)C` [Example 12, 4-[4-[6-(3,5-Di-tert-butyl-4-methoxyphenylthio)hexyloxy]-2-methoxy-3,5,6-trimethylphenylcarboxy]-2-methoxy-3,5,6-trimethylbenzoic acid], the IC50 at Human secretory PLA2 is greater than 50 µM; in experiment [1], 2 µM.
The matching figures for `COc1c(C(C)(C)C)cc(SCCCCCCOc2c(C)c(C)c(C(=O)O)c(OC)c2C)cc1C(C)(C)C` [Example 13, 4-[6-(3,5-Di-tert-butyl-4-methoxyphenylthio)hexyloxy]-2-methoxy-3,5,6-trimethylbenzoic acid]: greater than 50 µM and 1.9 µM.
`COc1c(C)c(OC(=O)c2c(C)c(C)c(OCCCOc3ccc(F)cc3F)c(C)c2OC)c(C)c(C)c1C(=O)O` [Example 14, 4-[4-[3-(2,4-difluorophenoxy)propyloxy]-2-methoxy-3,5,6-trimethylphenylcarboxy]-2-methoxy-3,5,6-trimethylbenzoic acid]: the 50% inhibitory concentration (IC50) at Human secretory PLA2 worked out at 14 µM; in experiment [1], 9.4 µM.
The matching figures for `COc1c(C(C)(C)C)cc(SCCCOc2c(C)c(C)c(C(=O)O)c(OC)c2C)cc1C(C)(C)C` [Example 16, 4-[3-(3,5-Di-tert-butyl-4-methoxyphenylthio)propyloxy]-2-methoxy-3,5,6-trimethylbenzoic acid]: greater than 50 µM and 2.6 µM.
On to `COc1ccc(OCCCOc2c(C)c(C)c(C(=O)Oc3c(C)c(C)c(C(=O)O)c(OC)c3C)c(OC)c2C)cc1` [Example 17, 4-[4-[3-(4-Methoxyphenoxy)propyloxy]-2-methoxy-3,5,6-trimethylphenylcarboxy]-2-methoxy-3,5,6-trimethylbenzoic acid], for which the IC50 at Human secretory PLA2 was found to be 12 µM; in experiment [1], 14 µM.
For `COc1c(C)c(OCCCOc2ccc3ccccc3c2)c(C)c(C)c1C(=O)O` [Example 18, 2-Methoxy-3,5,6-trimethyl-4-[3-(2-naphthyloxy)-propyloxy]benzoic acid] the same measures were greater than 50 µM and 19 µM.
For the compound `COc1c(C)c(OC(=O)c2c(C)c(C)c(OCCCOc3ccc4ccccc4c3)c(C)c2OC)c(C)c(C)c1C(=O)O` [Example 19, 4-[2-Methoxy-3,5,6-trimethyl-4-[3-(2-naphthyloxy)-propyloxy]phenylcarboxy]-2-methoxy-3,5,6-trimethylbenzoic acid], the IC50 at Human secretory PLA2 was found to be 16 µM; in experiment [1], 1.8 µM.
As for `COc1ccc(OCCCOc2c(C)c(C)c(C(=O)Oc3c(C)c(C)c(C(=O)O)c(OC)c3C)c(OC)c2C)cc1OC` [Example 20, 4-[4-[3-(3,4-Dimethoxyphenoxy)propyloxy]-2-methoxy-3,5,6-trimethylphenylcarboxy]-2-methoxy-3,5,6-trimethylbenzoic acid], the IC50 is 11 µM on Human secretory PLA2 and 35 µM in experiment [1].
With `COc1cc(OCCCOc2c(C)c(C)c(C(=O)Oc3c(C)c(C)c(C(=O)O)c(OC)c3C)c(OC)c2C)c(C(c2ccccc2)c2ccccc2)cc1OC` [Example 21, 4-[4-[3-(2-Benzhydryl-4,5-dimethoxyphenoxy)propyloxy]-2-methoxy-3,5,6-trimethylphenylcarboxy]-2-methoxy-3,5,6-trimethylbenzoic acid], the IC50 at Human secretory PLA2 was determined as 15 µM; in experiment [1], 1.4 µM.
As for `COc1c(C)c(OC(=O)c2c(C)c(C)c(OCCCNc3ccc(C(F)(F)F)cc3)c(C)c2OC)c(C)c(C)c1C(=O)O` [Example 22, 4-[4-[3-(4-Trifluoromethylphenylamino)propyloxy]-2-methoxy-3,5,6-trimethylphenylcarboxy]-2-methoxy-3,5,6 trimethylbenzoic acid hydrochloride], the IC50 at Human secretory PLA2 came out at 42 µM; in experiment [1], 4.3 µM.
For `COc1c(C)c(OC(=O)c2c(C)c(C)c(OCCCOc3ccc(Cl)cc3Cl)c(C)c2OC)c(C)c(C)c1C(=O)O` [Example 24, 4-{4-[3-(2,4-Dichlorophenoxy)propoxy]-2-methoxy-3,5,6-trimethylbenzoyloxy}-2-methoxy-3,5,6-trimethylbenzoic Acid] the same measures were 12 µM and 2.8 µM.
The matching figures for `COc1c(C)c(OC(=O)c2c(C)c(C)c(OCCCOc3ccc(Br)cc3Br)c(C)c2OC)c(C)c(C)c1C(=O)O` [Example 26, 4-{4-[3-(2,4-Dibromophenoxy)propoxy]-2-methoxy-3,5,6-trimethylbenzoyloxy}-2-methoxy-3,5,6-trimethylbenzoic Acid]: 15 µM and 2.6 µM.
For `COc1c(C)c(OC(=O)c2c(C)c(C)c(OCCCOc3cc4c(cc3C(c3ccccc3)c3ccccc3)OCO4)c(C)c2OC)c(C)c(C)c1C(=O)O` [Example 27, 4-{4-[3-(6-Benzhydrylbenzo[1, 3]dioxol-5-yloxy)-propoxy]-2-methoxy-3,5,6-trimethylbenzoyloxy}-2-methoxy-3,5,6-trimethylbenzoic Acid] the same measures were 13 µM and 1.5 µM.
For `COc1c(C)c(OC(=O)c2c(C)c(C)c(OCCCOc3ccc4c(c3)OCO4)c(C)c2OC)c(C)c(C)c1C(=O)O` [Example 28, 4-{4-[3-(Benzo[1, 3]dioxol-5-yloxy)propoxy]-2-methoxy-3,5,6-trimethylbenzoyloxy}-2-methoxy-3,5,6-trimethylbenzoic Acid], the IC50 was determined as 6.9 µM on Human secretory PLA2 and 10 µM in experiment [1].
For `CCc1ccc(OCCCOc2c(C)c(C)c(C(=O)Oc3c(C)c(C)c(C(=O)O)c(OC)c3C)c(OC)c2C)cc1` [Example 30, 4-{4-[3-(4-Ethylphenoxy)propoxy]-2-methoxy-3,5,6-trimethylbenzoyloxy}-2-methoxy-3,5,6-trimethylbenzoic Acid] the same measures were 16 µM and 5.4 µM.
In the case of `COc1c(C)c(OC(=O)c2c(C)c(C)c(OCCCOc3ccc(C(C)=O)cc3)c(C)c2OC)c(C)c(C)c1C(=O)O` [Example 31, 4-{4-[3-(4-Acetylphenoxy)propoxy]-2-methoxy-3,5,6-trimethylbenzoyloxy}-2-methoxy-3,5,6-trimethylbenzoic Acid], the IC50 on Human secretory PLA2 was 7 µM; in experiment [1], 24 µM.
For `COc1c(C)c(OC(=O)c2c(C)c(C)c(OCCCOc3ccc(C(=O)O)cc3)c(C)c2OC)c(C)c(C)c1C(=O)O` [Example 32, 4-{4-[3-(4-Carboxyphenoxy)propoxy]-2-methoxy-3,5,6-trimethylbenzoyloxy}-2-methoxy-3,5,6-trimethylbenzoic Acid], the IC50 at Human secretory PLA2 was found to be 10 µM; in experiment [1] it was 38 µM.
For `COc1c(C)c(OC(=O)c2c(C)c(C)c(OCCCOc3ccccc3F)c(C)c2OC)c(C)c(C)c1C(=O)O` [Example 33, 4-{4-[3-(2-Fluorophenoxy)propoxy]-2-methoxy-3,5,6-trimethylbenzoyloxy}-2-methoxy-3,5,6-trimethylbenzoic Acid], the figures for the IC50 (on Human secretory PLA2; in experiment [1]) were 26 µM and 12 µM, respectively.
With `COc1c(C)c(OC(=O)c2c(C)c(C)c(OCCCOc3cccc(F)c3)c(C)c2OC)c(C)c(C)c1C(=O)O` [Example 34, 4-{4-[3-(3-Fluorophenoxy)propoxy]-2-methoxy-3,5,6-trimethylbenzoyloxy}-2-methoxy-3,5,6-trimethylbenzoic Acid], the IC50 was found to be 50 µM at Human secretory PLA2 and 9.7 µM in experiment [1].

Usually IC50 stands for the concentration needed to halve the response being measured.

Source of the values: patent US5534533A, “Carboxylate derivatives exhibiting phospholipase A2 inhibitory activity” (Shionogi & Co., Ltd., priority 1993, dated 1996).
